Test results reported in paper PMC6053404, “Enzymatic one-step ring contraction for quinolone biosynthesis” (Nature Communications, 2018).

Assays:
AsqI = molecular target: T1, AsqI (Aspergillus nidulans, UniProt C8VJQ3); assay: LC-MS initial rate of […]′-methoxyviridicatin […] formation; assay type: biochemical; conditions: MES Na 100 mM, NaCl 100 mM, pH 5.5, 30 °C; substrate 0.05-0.8 mM, Km extrapolated above tested range
T1 construct: hexahistidine-tagged, recombinant from Escherichia coli; plasmid pKW18244; zinc-dependent

PngL = system: T2, PngL; assay: steady-state kinetics; assay type: biochemical, Penicillium sp. FKI-2140; conditions: accurate parameters prevented by difficult purification; conditions in Supplementary Methods
T2 construct: hexahistidine-tagged, recombinant from Escherichia coli; difficult to purify

T1 sequence (C8VJQ3 whole entry): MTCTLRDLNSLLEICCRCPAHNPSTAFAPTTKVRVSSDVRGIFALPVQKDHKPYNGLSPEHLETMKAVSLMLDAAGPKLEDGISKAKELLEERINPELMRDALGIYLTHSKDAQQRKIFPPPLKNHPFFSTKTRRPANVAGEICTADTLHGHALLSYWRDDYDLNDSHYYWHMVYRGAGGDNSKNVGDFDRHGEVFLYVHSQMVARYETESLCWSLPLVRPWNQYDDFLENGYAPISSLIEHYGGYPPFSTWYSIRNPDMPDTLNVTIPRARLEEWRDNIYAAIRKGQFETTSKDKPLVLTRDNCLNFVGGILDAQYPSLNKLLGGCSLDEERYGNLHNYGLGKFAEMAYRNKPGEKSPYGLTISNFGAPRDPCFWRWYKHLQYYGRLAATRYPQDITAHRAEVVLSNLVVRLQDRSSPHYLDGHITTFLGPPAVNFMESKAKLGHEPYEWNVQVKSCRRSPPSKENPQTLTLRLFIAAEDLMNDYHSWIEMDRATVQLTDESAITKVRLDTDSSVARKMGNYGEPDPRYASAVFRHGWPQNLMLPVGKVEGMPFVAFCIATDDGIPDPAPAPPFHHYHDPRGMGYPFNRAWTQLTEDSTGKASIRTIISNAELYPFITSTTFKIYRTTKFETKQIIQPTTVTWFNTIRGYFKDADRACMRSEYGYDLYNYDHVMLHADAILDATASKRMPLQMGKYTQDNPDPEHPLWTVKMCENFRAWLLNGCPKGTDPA

- Km (AsqI): 2860 ± 520 µM
- Km (PngL): 350 ± 30 µM
SMILES: COc1ccc(C2OC23C(=O)Nc2ccccc2C(=O)N3C)cc1 (single isomer, unassigned; (-)) [compound 2, (–)-4′-methoxycyclopenin]
